# Measured values published in patent publication US11465998B2, “Therapeutic compounds and methods of use thereof” (Regents of the University of Minnesota, priority 2019, dated 2022).
# “Also recorded” adds a separate entry of the source.
# Tests used:
# Assay type in all cases: cell-based
# [1] = tested on: human peripheral blood mononuclear cells (PBMCs); test: Multiplexed immunoassays for human cytokines in PBMCs
# Experimental: (§1) Example 5: High-throughput screens in porcine blood: Curated compound collections were obtained from the Institute for Therapeutics Discovery & Development at the University of Minnesota. Compound transfers from source (80 nL of 10 mM stocks) to assay plates were performed using an Echo 550 acoustic liquid handler (Labcyte, Sunnyvale, Calif.). For most libraries, a target final concentration of 10 μM of compound (in a final volume of 80 μL for the assay described below) was achieved. Compound plates were hermetically sealed and stored at −80° C. until used. Fresh, heparin-anticoagulated porcine blood from healthy animals were obtained under USDA supervision from Midwest Research Swine, LLC (Glencoe, Minn.). 80 μL of hematocrit-enriched porcine blood (low-speed centrifugation, followed by resuspension in DMEM supplemented with 10% fetal bovine serum) was added to compound plates and incubated for 15 h. The following day, the plates were briefly centrifuged (100 g, 10 min), and supernatants were transferred using an automated ViaFlow 384 transfer device (Integra Biosciences Corp., Hudson, N.H.) to assay plates containing of 10^6 cells/mL of each of the following NF-κB/secreted alkaline phosphatase reporter cells suspended in HEK-Blue Detection Media: human IFN-α/β, human IFN-γ, human TNF-α/IL-1β (InvivoGen, San Diego, Calif.). NF-κB translocation was assayed spectrophotometrically using an alkaline phosphatase-specific chromogen (present in HEK-detection medium as supplied by InvivoGen) at 620 nm using a SpectraMax M4 multimode microplate reader (Molecular Devices, Sunnyvale, Calif.). Z′ factors were computed for each TLR/NOD-specific signals. Hits were defined as signals >4σ (in-plate standard deviations for test compounds above negative control means), were deconvoluted in full dose-response assays in human TLR-2/-3/-4/-5/-7/-8/-9 and NOD-1/NOD-2-specific reporter cells in liquid handler-assisted assay formats as described previously. Example 6: Murine knockout cell-lines: The following reagents were obtained through BEI Resources, NIAID, NIH: the microglial cell line derived from MAL/MyD88 double knockout Mice (NR-9904), and the macrophage cell line derived from TRIF/TRAM knockout mice (NR-9568). Example 7: Human NOD1/2-specific reporter gene assays (NF-κB induction), and TLR-2/-3/-4/-5/-7/-8/-9/STING/ISG counter-screens: The induction of NF-κB was quantified using human TLR-2/-3/-4/-5/-7/-8/-9/NOD-1/NOD-2/STING/ISG-specific, rapid-throughput, liquid handler-assisted reporter gene assays as previously described by us (Wu, W. et al. J. Med. Chem. 2010, 53, 3198-3213; Shukla, N. M. et al. J. Med. Chem. 2010, 53, 4450-4465; Agnihotri, G. et al. J. Med. Chem. 2011, 54, 1490-1510 and Ukani, R. et al. Bioorg. Med. Chem. Lett. 2012, 22, 293-295). […]
# human whole blood = test: Cytokine/chemokine induction in human whole blood
# human NOD2 = target: T1, human NOD2 (Homo sapiens, UniProt Q9HC29); test: human NOD2 specific reporter gene assay (NF-κB induction); conditions: for hNOD2-agonistic activity (in words): human NOD2 reporter gene assay; for EC50: human NOD2 specific reporter gene assay, arithmetic mean of quadruplicate samples, NA* indicates inactive under the tested conditions, read-out: hNOD2 Agonistic Activity (μM), EC50
# T1 construct: host or cells: HEK293
# Experimental: as §1, with “293-295). HEK293 cells stably co-transfected with the appropriate hTLR and secreted alkaline phosphatase (sAP) were maintained in HEK-Blue™ Selection medium. Stable expression of secreted alkaline phosphatase (sAP) under control of NF-κB/AP-1/IRF promoters is inducible by appropriate innate immune stimuli, and extracellular sAP in the supernatant is proportional to NF-κB/IRF induction. Reporter cells were incubated at a density of ˜10^5 cells/ml in a volume of 80 μl/well, in 384-well, flat-bottomed, cell culture-treated microtiter plates in the presence of graded concentrations of stimuli. sAP was assayed spectrophotometrically using an alkaline phosphatase-specific chromogen (present in HEK-detection medium as supplied by InvivoGen) at 620 nm. Example 8: Multiplexed immunoassays for human cytokines: Fresh human peripheral blood mononuclear cells (hPBMC) were isolated from human blood obtained by venipuncture in Cell Preparation Tubes (CPT, Beckton-Dickinson) with informed consent and as per guidelines approved by the University of Minnesota Human Subjects Experimentation Committee. Aliquots of PBMCs or THP-1 cells (10^5 cells in 100 μL/well) were stimulated for 16 h with graded concentrations of test compounds.” for “293-295).”
# [2] = tested on: macrophage cell line derived from TRIF/TRAM knockout mice (NR-9568); test: Cytokine/chemokine induction in TRIF/TRAM double-knockout cell line; conditions: TRIF/TRAM double-knockout murine cell line
# Experimental: (§2) Cytokine induction by 7e and 7f was examined in murine-derived cell lines. […] The absence of activity was not due to extensive plasma protein binding by re-examining under near-serum-free conditions.
# (§3) Example 5: High-throughput screens in porcine blood: Curated compound collections were obtained from the Institute for Therapeutics Discovery & Development at the University of Minnesota. Compound transfers from source (80 nL of 10 mM stocks) to assay plates were performed using an Echo 550 acoustic liquid handler (Labcyte, Sunnyvale, Calif.). For most libraries, a target final concentration of 10 μM of compound (in a final volume of 80 μL for the assay described below) was achieved. Compound plates were hermetically sealed and stored at −80° C. until used. Fresh, heparin-anticoagulated porcine blood from healthy animals were obtained under USDA supervision from Midwest Research Swine, LLC (Glencoe, Minn.). 80 μL of hematocrit-enriched porcine blood (low-speed centrifugation, followed by resuspension in DMEM supplemented with 10% fetal bovine serum) was added to compound plates and incubated for 15 h. […] NF-κB translocation was assayed spectrophotometrically using an alkaline phosphatase-specific chromogen (present in HEK-detection medium as supplied by InvivoGen) at 620 nm using a SpectraMax M4 multimode microplate reader (Molecular Devices, Sunnyvale, Calif.). […] Example 7: Human NOD1/2-specific reporter gene assays (NF-κB induction), and TLR-2/-3/-4/-5/-7/-8/-9/STING/ISG counter-screens: The induction of NF-κB was quantified using human TLR-2/-3/-4/-5/-7/-8/-9/NOD-1/NOD-2/STING/ISG-specific, rapid-throughput, liquid handler-assisted reporter gene assays as previously described by us (Wu, W. et al. J. Med. Chem. 2010, 53, 3198-3213; Shukla, N. M. et al. J. Med. Chem. 2010, 53, 4450-4465; Agnihotri, G. et al. J. Med. Chem. 2011, 54, 1490-1510 and Ukani, R. et al. Bioorg. Med. Chem. Lett. 2012, 22, 293-295). […]
# [3] = tested on: RAW264.7 murine macrophages; test: Cytokine/chemokine induction in wild-type RAW264.7 murine macrophages (multiplexed immunoassay); conditions: wild-type RAW264.7 murine macrophage cell line
# Experimental: as §2, §3
# [4] = tested on: microglial cell line derived from MAL/MyD88 double knockout Mice (NR-9904); test: Cytokine/chemokine induction in MAL/MyD88 double-knockout cell line; conditions: MAL/MyD88 double-knockout murine cell line
# Experimental: as §2, §3
# T1 sequence (Q9HC29 whole entry): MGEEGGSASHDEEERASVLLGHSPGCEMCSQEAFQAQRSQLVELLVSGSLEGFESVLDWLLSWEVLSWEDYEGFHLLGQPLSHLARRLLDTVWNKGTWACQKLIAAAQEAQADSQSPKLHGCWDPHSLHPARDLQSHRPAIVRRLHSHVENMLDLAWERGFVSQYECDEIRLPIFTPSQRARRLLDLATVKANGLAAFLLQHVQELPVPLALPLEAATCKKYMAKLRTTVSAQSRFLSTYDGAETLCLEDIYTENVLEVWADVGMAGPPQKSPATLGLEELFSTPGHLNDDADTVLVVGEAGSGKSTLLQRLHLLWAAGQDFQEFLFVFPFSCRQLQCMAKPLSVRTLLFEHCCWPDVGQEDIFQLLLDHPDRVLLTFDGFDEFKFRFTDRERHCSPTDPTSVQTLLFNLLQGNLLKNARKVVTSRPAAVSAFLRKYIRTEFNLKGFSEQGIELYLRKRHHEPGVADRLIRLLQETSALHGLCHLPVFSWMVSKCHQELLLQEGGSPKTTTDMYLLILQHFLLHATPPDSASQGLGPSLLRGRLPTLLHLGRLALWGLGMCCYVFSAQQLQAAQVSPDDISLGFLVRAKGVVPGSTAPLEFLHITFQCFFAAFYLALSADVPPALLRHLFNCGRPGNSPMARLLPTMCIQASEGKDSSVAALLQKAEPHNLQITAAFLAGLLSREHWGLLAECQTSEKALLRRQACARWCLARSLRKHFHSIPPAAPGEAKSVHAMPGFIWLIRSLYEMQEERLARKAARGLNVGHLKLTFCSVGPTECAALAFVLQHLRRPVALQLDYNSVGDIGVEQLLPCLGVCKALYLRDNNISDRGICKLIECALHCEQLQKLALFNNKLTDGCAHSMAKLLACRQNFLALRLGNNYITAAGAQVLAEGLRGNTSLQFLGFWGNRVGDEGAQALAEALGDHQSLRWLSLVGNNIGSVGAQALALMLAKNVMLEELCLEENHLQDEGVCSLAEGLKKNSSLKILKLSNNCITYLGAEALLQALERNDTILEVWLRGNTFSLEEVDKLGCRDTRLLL
structure (smiles),measurement,setting,value
"CCOC(=O)c1cc(-n2cnc3ccccc32)cs1 [Compound 1, Ethyl 4-(1H-benzo[d]imidazol-1-yl)thiophene-2-carboxylate]",induction of chemokines and cytokines,[1],"None of the small molecules (including 1, as well as the optimized, equipotent analogues 7e and 7f) showed any activity"
same,induction of cytokines and chemokines,human whole blood,"None of the small molecules (including 1, as well as the optimized, equipotent analogues 7e and 7f) showed any activity"
"CCCCCc1nc2ccccc2n1-c1csc(C(=O)NO)c1 [Compound 11b, N-Hydroxy-4-(2-pentyl-1H-benzo[d]imidazol-1-yl)thiophene-2-carboxamide]",hNOD2-agonistic activity (in words),human NOD2,weak activity
same,EC50,human NOD2,1.84 µM
"CCCCCc1nc2ccccc2n1-c1csc(C(=O)NC)c1 [Compound 11c, N-Methyl-4-(2-pentyl-1H-benzo[d]imidazol-1-yl)thiophene-2-carboxamide]",hNOD2-agonistic activity (in words),human NOD2,weak activity
same,EC50,human NOD2,7.02 µM
"CCCCCc1nc2ccccc2n1-c1csc(C(=N)N)c1 [Compound 13b, 4-(2-Pentyl-1H-benzo[d]imidazol-1-yl)thiophene-2-carboximidamide]",hNOD2-agonistic activity (in words),human NOD2,weak activity
same,EC50,human NOD2,6.57 µM
"CCCCCc1nc2ccccc2n1-c1csc(C(N)=O)n1 [Compound 14, 4-(2-Pentyl-1H-benzo[d]imidazol-1-yl)thiazole-2-carboxamide]",hNOD2-agonistic activity (in words),human NOD2,weakly active
same,EC50,human NOD2,7.39 µM
"NC(=O)c1cc(-n2cnc3cnccc32)cs1 [Compound 18a, 4-(1H-Imidazo[4,5-c]pyridin-1-yl)thiophene-2-carboxamide]",hNOD2-agonistic activity (in words),human NOD2,inactive
"CCCCc1nc2cnccc2n1-c1csc(C(N)=O)c1 [Compound 18b, 4-(2-Butyl-1H-imidazo[4,5-c]pyridin-1-yl)thiophene-2-carboxamide]",hNOD2-agonistic activity (in words),human NOD2,weakly active
same,EC50,human NOD2,5.65 µM
"NC(=O)c1cc(-n2cnc3c(N)nccc32)cs1 [Compound 19a, 4-(4-Amino-1H-imidazo[4,5-c]pyridin-1-yl)thiophene-2-carboxamide]",hNOD2-agonistic activity (in words),human NOD2,inactive
"CCCCc1nc2c(N)nccc2n1-c1csc(C(N)=O)c1 [Compound 19b, 4-(4-Amino-2-butyl-1H-imidazo[4,5-c]pyridin-1-yl)thiophene-2-carboxamide]",hNOD2-agonistic activity (in words),human NOD2,weakly active
same,EC50,human NOD2,4.08 µM
"CCCCOC(=O)[C@@H](CCC(N)=O)NC(=O)[C@H](C)NC(=O)[C@@H](C)O[C@H]1[C@H](O)[C@@H](CO)OC(O)[C@@H]1NC(C)=O (stereo partly drawn) [murabutide, N-Acetyl-muramyl-LAlanyl-D-Glutamin-n-butyl-ester, reference compound]",induction of chemokines and cytokines,[1],induced significant levels of cytokines and chemokines
same,cytokine and chemokine induction,[2],abrogation of responsiveness
same,induction of cytokines and chemokines,human whole blood,induced significant levels of cytokines and chemokines
same,induction of chemokines and proinflammatory cytokines,[3],potently immunostimulatory; also recorded: induction of chemokines and cytokines
same,cytokine and chemokine induction,[4],abrogation of responsiveness
